Laboratory results taken from ChEMBL document CHEMBL5331071, “Structure-activity relationship study of amidobenzimidazole derivatives as stimulator of interferon genes (STING) agonists” (Eur J Med Chem, 2023).
pEC50, pIC50: −log10 of the molar value.

Assays:
[1] = Stability in rat plasma assessed as residual of initial concentration at 1 hr; assay type: ADME, cell-free; conditions: read-out: Stability
[2] = molecular target: T1, Stimulator of interferon genes protein (Homo sapiens, UniProt Q86WV6); experiment: Agonist activity at STING in human […] KO-STING cells incubated for 20 hrs by Quanti-luc reagent based assay; assay type: cell-based, THP1-Dual KO-STING
[3] = molecular target: T1, Stimulator of interferon genes protein; experiment: Agonist activity at STING in human THP1-Dual cells incubated for 20 hrs by Quanti-luc reagent based assay; assay type: cell-based
THP1-Dual = experiment: Cytotoxicity against human THP1-Dual habouring STING assessed as inhibition of cell growth by MTS assay; assay type: functional, cell-based
[4] = Cytotoxicity against human THP1-Dual KO-STING cells assessed as inhibition of cell growth by MTS assay; assay type: functional, cell-based

T1 sequence (Q86WV6 whole entry): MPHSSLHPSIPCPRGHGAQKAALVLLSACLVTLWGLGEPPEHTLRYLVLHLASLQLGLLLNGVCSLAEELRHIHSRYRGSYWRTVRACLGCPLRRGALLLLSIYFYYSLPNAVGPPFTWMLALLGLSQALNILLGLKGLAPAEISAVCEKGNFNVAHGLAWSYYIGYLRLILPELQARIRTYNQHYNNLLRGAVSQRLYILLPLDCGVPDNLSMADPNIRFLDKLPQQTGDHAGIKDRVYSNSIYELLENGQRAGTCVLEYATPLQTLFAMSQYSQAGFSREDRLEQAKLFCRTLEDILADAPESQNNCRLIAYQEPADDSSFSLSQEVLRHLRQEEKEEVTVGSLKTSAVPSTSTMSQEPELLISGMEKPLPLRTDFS

Row | remaining at 1 h [1] [%] | pEC50 [2] | pEC50 [3] | Compound | pIC50 (THP1-Dual) | pIC50 [4]
1 | 36.4 | – | – | CCn1nc(C)cc1C(=O)Nc1nc2cc(C(N)=O)cc(OCCCOC)c2n1CCCNC(=O)OCc1ccccc1 | – | –
2 | – | < 4.00 | 5.53 | CCn1nc(C)cc1C(=O)Nc1nc2cc(C(N)=O)cc(OCCCOC)c2n1NCCCC(=O)NCc1ccc(F)cc1 | < 4.00 | < 4.00
3 | – | < 4.00 | < 4.00 | CCn1nc(C)cc1C(=O)Nc1nc2cc(C(N)=O)cc(OC)c2n1CCCN1CCN(C(=O)c2ccc3ccccc3c2)CC1 | < 4.00 | < 4.00
4 | – | < 4.00 | < 4.00 | CCn1nc(C)cc1C(=O)Nc1nc2cc(C(N)=O)cc(OC)c2n1C/C=C/CNC(=O)C1CCCCC1 | < 4.00 | < 4.00
5 | – | < 4.00 | < 4.00 | CCn1nc(C)cc1C(=O)Nc1nc2cc(C(N)=O)cc(OC)c2n1C/C=C/CNC1CCN(C)CC1 | < 4.00 | < 4.00
6 | – | < 4.00 | 5.38 | CCn1nc(C)cc1C(=O)Nc1nc2cc(C(N)=O)cc(OC)c2n1CCCC(=O)NCc1ccccc1 | < 4.00 | < 4.00
7 | – | < 4.00 | 5.07 | CCn1nc(C)cc1C(=O)Nc1nc2cc(C(N)=O)cc(OC)c2n1NCCCNC(=O)NCc1ccccc1 | < 4.00 | < 4.00
8 | – | < 4.00 | 5.01 | CCn1nc(C)cc1C(=O)Nc1nc2cc(C(N)=O)cc(OC)c2n1CCCC(=O)Nc1ccc2ccccc2c1 | < 4.00 | < 4.00
9 | – | < 4.00 | < 4.00 | CCn1nc(C)cc1C(=O)Nc1nc2cc(C(N)=O)cc(OC)c2n1NCCCNC(=O)NCc1ccc2ccccc2c1 | < 4.00 | < 4.00
10 | – | < 4.00 | 4.54 | CCn1nc(C)cc1C(=O)Nc1nc2cc(C(N)=O)cc(OC)c2n1NCCCC(=O)NCc1ccc(Oc2ccccc2)cc1 | < 4.00 | < 4.00
11 | – | < 4.00 | < 4.00 | CCn1nc(C)cc1C(=O)Nc1nc2cc(C(N)=O)cc(OC)c2n1C/C=C/CNC(=O)c1cnc(OC)cn1 | < 4.00 | < 4.00
12 | – | < 4.00 | < 4.00 | CCn1nc(C)cc1C(=O)Nc1nc2cc(C(N)=O)cc(OC)c2n1CCCNC(=O)c1ccccc1 | < 4.00 | < 4.00
13 | – | < 4.00 | < 4.00 | CCn1nc(C)cc1C(=O)Nc1nc2cc(C(N)=O)cc(OC)c2n1C/C=C/CNC(=O)c1ccc2ccccc2c1 | < 4.00 | < 4.00
14 | – | < 4.00 | < 4.00 | CCn1nc(C)cc1C(=O)Nc1nc2cc(C(N)=O)cc(OC)c2n1CCOCCNC(=O)c1ccc(C(F)(F)F)cc1 | < 4.00 | < 4.00
15 | – | < 4.00 | < 4.00 | CCn1nc(C)cc1C(=O)Nc1nc2cc(C(N)=O)cc(OC)c2n1C/C=C/CNC(=O)Cc1ccccc1 | < 4.00 | < 4.00
16 | – | < 4.00 | < 4.00 | CCn1nc(C)cc1C(=O)Nc1nc2cc(C(N)=O)cc(OC)c2n1NCCCC(=O)NCc1ccc(Cl)cc1C(F)(F)F | < 4.00 | < 4.00
17 | – | < 4.00 | 5.95 | CCn1nc(C)cc1C(=O)Nc1nc2cc(C(N)=O)cc(OCC3CC3)c2n1NCCCNC(=O)c1ccc2ccccc2c1 | < 4.00 | 4.92
18 | – | < 4.00 | < 4.00 | CCn1nc(C)cc1C(=O)Nc1nc2cc(C(N)=O)cc(OC)c2n1C/C=C/CNC(=O)c1ccoc1 | < 4.00 | < 4.00
19 | – | < 4.00 | < 4.00 | CCn1nc(C)cc1C(=O)Nc1nc2cc(C(N)=O)cc(OC)c2n1CCCNC(=O)c1ccc(-c2ccccc2)cc1 | < 4.00 | < 4.00
20 | – | < 4.00 | < 4.00 | CCn1nc(C)cc1C(=O)Nc1nc2cc(C(N)=O)cc(OC)c2n1CCCN1CCC(NC(=O)c2ccc3ccccc3c2)CC1 | < 4.00 | < 4.00
21 | – | < 4.00 | 4.02 | CCn1nc(C)cc1C(=O)Nc1nc2cc(C(N)=O)cc(OC)c2n1NCCCC(=O)NCc1ccc(Cl)cc1Br | < 4.00 | < 4.00
